Test results reported in ChEMBL document CHEMBL1201862, “PubChem BioAssay data set” (2004).
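Five concentrations, 48 hours, 96-well plates. The concentration for 50% growth inhibition is given as GI50.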 Calls of active or inactive are those of the source. No stated cut-off is given here; in the data, active = GI50 up to about 1.1 µM and inactive = higher. Where a SMILES comes first, the peptide text is derived from it. The star is where a group is joined. Cbz = O=C(OCc1ccccc1)*

Key:
Assay in all cases: inhibition of tumour cell growth, NCI panel, 48 h
PC-3 = test system: PC-3
M14 = test system: M14
KM12 = test system: KM12
SN12C = test system: SN12C
OVCAR-4 = test system: OVCAR-4
Hs-578T = test system: Hs-578T
MDA-N = test system: MDA-N
BT-549 = test system: BT-549
LOX IMVI = test system: LOX IMVI
SNB-19 = test system: SNB-19
HL-60 = test system: HL-60
NCI-H522 = test system: NCI-H522
HOP-62 = test system: HOP-62
COLO 205 = test system: COLO 205
OVCAR-8 = test system: OVCAR-8
CAKI-1 = test system: CAKI-1
DU-145 = test system: DU-145
MDA-MB-231 = test system: MDA-MB-231
NCI-H460 = test system: NCI-H460

Row | Structure (SMILES) | GI50 (PC-3) | GI50 (M14) | GI50 (KM12) | GI50 (SN12C) | GI50 (OVCAR-4) | GI50 (Hs-578T) | GI50 (MDA-N) | GI50 (BT-549) | GI50 (LOX IMVI) | GI50 (SNB-19) | GI50 (HL-60) | GI50 (NCI-H522) | GI50 (HOP-62) | GI50 (COLO 205) | GI50 (OVCAR-8) | GI50 (CAKI-1) | GI50 (DU-145) | GI50 (MDA-MB-231) | GI50 (NCI-H460)
1 | CC(=O)NC(Cc1ccc(O)cc1)C(=O)O (configuration not stated) | > 100 µM (inactive) | > 100 µM (inactive) | > 100 µM (inactive) | > 100 µM (inactive) | > 100 µM (inactive) | > 100 µM (inactive) | > 100 µM (inactive) | > 100 µM (inactive) | > 100 µM (inactive) | > 100 µM (inactive) | > 100 µM (inactive) | > 100 µM (inactive) | > 100 µM (inactive) | > 100 µM (inactive) | > 100 µM (inactive) | > 100 µM (inactive) | > 100 µM (inactive) | > 100 µM (inactive) | > 100 µM (inactive)
2 | Cc1nc2ccc(S(=O)(=O)Nc3ccccc3)cc2c(=O)n1NC(=O)CNc1ccccc1 | > 100 µM (inactive) | > 100 µM (inactive) | > 100 µM (inactive) | > 100 µM (inactive) | > 100 µM (inactive) | > 100 µM (inactive) | > 100 µM (inactive) | > 100 µM (inactive) | > 100 µM (inactive) | > 100 µM (inactive) | > 100 µM (inactive) | > 100 µM (inactive) | 73.5 µM (inactive) | > 100 µM (inactive) | > 100 µM (inactive) | > 100 µM (inactive) | > 100 µM (inactive) | > 100 µM (inactive) | > 100 µM (inactive)
3 | Clc1ccc(/C=N/c2ccc3c(c2)Cc2ccccc2-3)c(Cl)c1 | > 100 µM (inactive) | > 100 µM (inactive) | > 100 µM (inactive) | > 100 µM (inactive) | > 100 µM (inactive) | > 100 µM (inactive) | 53.2 µM (inactive) | > 100 µM (inactive) | 92.9 µM (inactive) | > 100 µM (inactive) | 77.1 µM (inactive) | > 100 µM (inactive) | > 100 µM (inactive) | > 100 µM (inactive) | > 100 µM (inactive) | > 100 µM (inactive) | > 100 µM (inactive) | > 100 µM (inactive) | > 100 µM (inactive)
4 | COC(=O)c1cc(C#N)[nH]c1-c1ccc(Br)s1 | 1.75 µM (inactive) | 9.73 µM (inactive) | 16.7 µM (inactive) | 13.1 µM (inactive) | 10.1 µM (inactive) | 5.74 µM (inactive) | 13.7 µM (inactive) | 10.9 µM (inactive) | 9.14 µM (inactive) | 7.74 µM (inactive) | 11.5 µM (inactive) | 7.03 µM (inactive) | 8.39 µM (inactive) | 14.1 µM (inactive) | 12.8 µM (inactive) | 19.2 µM (inactive) | 10.8 µM (inactive) | 14.5 µM (inactive) | 17.6 µM (inactive)
5 | CN(C)CCCc1cccc2[nH]c3c(c12)CN(C)CC3 | 67.1 µM (inactive) | 17.3 µM (inactive) | > 100 µM (inactive) | > 100 µM (inactive) | > 100 µM (inactive) | > 100 µM (inactive) | > 100 µM (inactive) | 81.7 µM (inactive) | 30.1 µM (inactive) | > 100 µM (inactive) | 56.9 µM (inactive) | > 100 µM (inactive) | 56.5 µM (inactive) | 63.4 µM (inactive) | > 100 µM (inactive) | > 100 µM (inactive) | > 100 µM (inactive) | 17.8 µM (inactive) | > 100 µM (inactive)
6 | Cc1cc2c([N+](=O)[O-])cc3c(c2o1)C(=O)C=CC3=O | 16.4 µM (inactive) | 5.58 µM (inactive) | 16.6 µM (inactive) | 6.19 µM (inactive) | 16.1 µM (inactive) | 18.5 µM (inactive) | 14.5 µM (inactive) | 16.6 µM (inactive) | 6.76 µM (inactive) | 15.5 µM (inactive) | 2.2 µM (inactive) | 1.52 µM (inactive) | 19 µM (inactive) | 2.3 µM (inactive) | 19.6 µM (inactive) | 1.06 µM (active) | 7.93 µM (inactive) | 18.7 µM (inactive) | 18.5 µM (inactive)
7 | CCOc1cc(NC(C)=O)ccc1C(=O)NN1C(=O)CSC1c1ccc(O)c(OC)c1 (configuration not stated) | 44 µM (inactive) | 50.4 µM (inactive) | 42.9 µM (inactive) | > 100 µM (inactive) | 39.9 µM (inactive) | 82.4 µM (inactive) | 54.7 µM (inactive) | 28 µM (inactive) | 87.3 µM (inactive) | 89.1 µM (inactive) | 41.5 µM (inactive) | 37.8 µM (inactive) | > 100 µM (inactive) | 33.1 µM (inactive) | 23.9 µM (inactive) | 44.4 µM (inactive) | > 100 µM (inactive) | 53.8 µM (inactive) | 43.5 µM (inactive)
8 | CCc1nc(N)nc(N)c1-c1ccc(NCCc2ccccc2)c([N+](=O)[O-])c1 | 0.272 µM (active) | 0.276 µM (active) | 1.33 µM (inactive) | 1.34 µM (inactive) | 3.24 µM (inactive) | 9.66 µM (inactive) | 0.195 µM (active) | 4.62 µM (inactive) | 0.199 µM (active) | 2.21 µM (inactive) | 0.186 µM (active) | 0.56 µM (active) | 1.64 µM (inactive) | 1.11 µM (active) | 0.394 µM (active) | 0.39 µM (active) | 1.14 µM (inactive) | 8.65 µM (inactive) | 0.0687 µM (active)
9 | COC(=O)C(CC(C)C)NC(=O)C(CCCNC(=N)N)NC(=O)OCc1ccccc1 (stereo not drawn) (Cbz-Arg-Leu-OMe; configuration not given here) | > 100 µM (inactive) | > 100 µM (inactive) | > 100 µM (inactive) | > 100 µM (inactive) | > 100 µM (inactive) | > 100 µM (inactive) | > 100 µM (inactive) | > 100 µM (inactive) | > 100 µM (inactive) | > 100 µM (inactive) | > 100 µM (inactive) | 78.5 µM (inactive) | > 100 µM (inactive) | > 100 µM (inactive) | > 100 µM (inactive) | > 100 µM (inactive) | > 100 µM (inactive) | > 100 µM (inactive) | > 100 µM (inactive)
10 | CCOC(=O)C(NC(=O)CC)(N1CCN(c2cc3c(cc2F)c(=O)c(C(=O)O)cn3C2CC2)CC1)C(F)(F)F (configuration not stated) | > 100 µM (inactive) | > 100 µM (inactive) | > 100 µM (inactive) | > 100 µM (inactive) | > 100 µM (inactive) | > 100 µM (inactive) | > 100 µM (inactive) | > 100 µM (inactive) | > 100 µM (inactive) | > 100 µM (inactive) | > 100 µM (inactive) | > 100 µM (inactive) | > 100 µM (inactive) | > 100 µM (inactive) | > 100 µM (inactive) | > 100 µM (inactive) | > 100 µM (inactive) | 52.2 µM (inactive) | > 100 µM (inactive)
11 | O=C1C(Cl)C2(CC(/C=C/c3ccccc3Cl)=NN2c2cccc(S(=O)(=O)O)c2)N1c1nc2ccccc2s1 (configuration not stated) | 66.4 µM (inactive) | 72.6 µM (inactive) | 14.7 µM (inactive) | 93.5 µM (inactive) | 29.1 µM (inactive) | 81.8 µM (inactive) | 46 µM (inactive) | > 100 µM (inactive) | 12.4 µM (inactive) | > 100 µM (inactive) | 6.67 µM (inactive) | 12.6 µM (inactive) | – | > 100 µM (inactive) | 26.5 µM (inactive) | 17.2 µM (inactive) | 21.2 µM (inactive) | 79.8 µM (inactive) | 63.5 µM (inactive)
12 | Clc1nc2c(C#Cc3ccccc3)ncnc2n1C1CCCCO1 (configuration not stated) | 12.2 µM (inactive) | 12.1 µM (inactive) | 14 µM (inactive) | 10.4 µM (inactive) | 9.51 µM (inactive) | 24.7 µM (inactive) | 8.47 µM (inactive) | 14.8 µM (inactive) | 12.6 µM (inactive) | 19.6 µM (inactive) | 11.7 µM (inactive) | 7.94 µM (inactive) | 31.2 µM (inactive) | 15.4 µM (inactive) | 19.9 µM (inactive) | 10 µM (inactive) | 19 µM (inactive) | 16.6 µM (inactive) | 15.7 µM (inactive)
13 | CCOC(=O)C1(C#N)C(=O)c2cc[n+](CC[n+]3ccc4c(c3)C(=O)C(C#N)(C(=O)OCC)C4=O)cc2C1=O (configuration not stated) | > 100 µM (inactive) | > 100 µM (inactive) | > 100 µM (inactive) | > 100 µM (inactive) | > 100 µM (inactive) | > 100 µM (inactive) | 64.1 µM (inactive) | > 100 µM (inactive) | 74.1 µM (inactive) | > 100 µM (inactive) | 83.4 µM (inactive) | > 100 µM (inactive) | – | > 10 µM (inactive) | > 100 µM (inactive) | > 100 µM (inactive) | > 100 µM (inactive) | 60.5 µM (inactive) | > 100 µM (inactive)
14 | CC(C)(CO)CNc1cc(Cl)nc(N)n1 | > 100 µM (inactive) | – | > 100 µM (inactive) | > 100 µM (inactive) | > 100 µM (inactive) | > 100 µM (inactive) | > 100 µM (inactive) | > 100 µM (inactive) | > 100 µM (inactive) | – | > 100 µM (inactive) | > 100 µM (inactive) | > 100 µM (inactive) | > 100 µM (inactive) | > 100 µM (inactive) | > 100 µM (inactive) | > 100 µM (inactive) | > 100 µM (inactive) | > 100 µM (inactive)
